These results are taken from US12091425B2 (AMGEN INC., priority 2016, dated 2024).

Experiment [1] has as its target T1, Mcl-1/Bim interaction, recombinant human Mcl-1 (171-327) (Homo sapiens, UniProt Q07820).
T1 construct: made in house
Briefly: Cell free Mcl-1: Bim Affinity Assay (Mcl-1 HTRF). In kind it is binding. To be noted: TR-FRET, 0.1 nM Mcl-1 (171-327), 0.05 nM biotin-Bim (51-76). Summed up:
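Compounds were mixed with the protein and a biotinylated Bim peptide spanning human residues 51-76. Plates were left overnight, then TR-FRET signal was measured. A four-parameter sigmoidal model applied to duplicate competition data gave IC50.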

Experiment [2] relates to OPM-2 human multiple myeloma cell line. Nature of the experiment: Cell Viability Assay (OPM-2 10 FBS). The format is cell-based. To be noted: Homo sapiens, OPM-2, 16 h, OPM-2 cells, 16 h, CellTiter-Glo. In short, it runs like this:
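ATP-based luminescence (CellTiter-Glo) measured after a 16 h compound treatment of OPM-2 cells seeded at 3000 cells/well in 10% FBS medium. IC50 values derived by 4-parameter logistic fitting of serial dilutions.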
For orientation: Cellular ATP, detected with luciferase, serves as a proxy for viable cell number.

T1 sequence (Q07820 171-327): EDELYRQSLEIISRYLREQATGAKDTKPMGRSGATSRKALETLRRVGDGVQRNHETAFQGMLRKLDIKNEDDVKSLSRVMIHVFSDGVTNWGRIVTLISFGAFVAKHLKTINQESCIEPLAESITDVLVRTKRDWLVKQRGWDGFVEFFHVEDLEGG

Turning to `CO[C@@H]1/C=C/CCCCS(=O)(=O)NC(=O)c2ccc3c(c2)N(C[C@@H]2CC[C@H]21)C[C@@]1(CCCc2cc(Cl)ccc21)CO3` [Example 229, (1S,3′R,6′R,7′R,8′E)-6-chloro-7′-methoxy-3,4-dihydro-2H,16′H-spiro[naphthalene-1,23′-[21]oxa[14]thia[1,15]diazatetracyclo[15.7.2.0^3,6.0^20,25]hexacosa[8,17,19,25]tetraen]-16′-one 14′,14′-dioxide], the figures for the IC50 in experiment [1] and in experiment [2] were 1.62 nM and 1720 nM, respectively.

As for `C[C@@H]1[C@@H](C)C/C=C/[C@H](OCC(=O)O)[C@@H]2CC[C@H]2CN2C[C@@]3(CCCc4cc(Cl)ccc43)COc3ccc(cc32)C(=O)NS1(=O)=O` [Example 292, (((1S,3′R,6′R,7′S,8′E,11′S,12′R)-6-chloro-11′,12′-dimethyl-13′,13′-dioxido-15′-oxo-3,4-dihydro-2H-spiro[naphthalene-1,22′-[20]oxa[13]thia[1,14]diazatetracyclo[14.7.2.0^3,6.0^19,24]pentacosa [8,16,18,24]tetraen]-7′-yl)oxy)acetic acid], the values for the IC50 in experiment [1] and in experiment [2] were 0.0929 nM and 1110 nM, respectively.

`C[C@@H]1[C@@H](C)C/C=C/[C@H](OCC(=O)O)[C@@H]2CC[C@H]2CN2C[C@@]3(CCCc4cc(Cl)ccc43)COc3cc(CC(=O)O)c(cc32)C(=O)NS1(=O)=O` [Example 293, ((1S,3′R,6′R,7′S,8′E,11′S,12′R)-7′-(carboxymethoxy)-6-chloro-11′,12′-dimethyl-13′,13′-dioxido-15′-oxo-3,4-dihydro-2H-spiro[naphthalene-1,22′-[20]oxa[13]thia[1,14]diazatetracyclo[14.7.2.0^3,6.0^19,24]pentacosa [8,16,18,24]tetraen]-17′-yl)acetic acid]: the IC50 (as a rule, the midpoint of a concentration-inhibition curve) was 0.36 nM in experiment [1] and 27600 nM in experiment [2].

For `CNC(=O)CO[C@H]1/C=C/C[C@H](C)[C@@H](C)S(=O)(=O)NC(=O)c2ccc3c(c2)N(C[C@@H]2CC[C@H]21)C[C@@]1(CCCc2cc(Cl)ccc21)CO3` [Example 294, 2-(((1S,3′R,6′R,7′S,8′E,11′S,12′R)-6-chloro-11′,12′-dimethyl-13′,13′-dioxido-15′-oxo-3,4-dihydro-2H-spiro[naphthalene-1,22′-[20]oxa[13]thia[1,14]diazatetracyclo[14.7.2.0^3,6.0^19,24]pentacosa [8,16,18,24]tetraen]-7′-yl)oxy)-N-methylacetamide], the results for the IC50 in experiment [1] and in experiment [2] were 0.255 nM and 410 nM, respectively.

With `C[C@@H]1[C@@H](C)C/C=C/[C@H](OCC(=O)N(C)C)[C@@H]2CC[C@H]2CN2C[C@@]3(CCCc4cc(Cl)ccc43)COc3ccc(cc32)C(=O)NS1(=O)=O` [Example 295, 2-(((1S,3′R,6′R,7′S,8′E,11′S,12′R)-6-chloro-11′,12′-dimethyl-13′,13′-dioxido-15′-oxo-3,4-dihydro-2H-spiro[naphthalene-1,22′-[20]oxa[13]thia[1,14]diazatetracyclo[14.7.2.0^3,6.0^19,24]pentacosa [8,16,18,24]tetraen]-7′-yl)oxy)-N,N-dimethylacetamide], the IC50 in experiment [1] stood at 0.19 nM; in experiment [2], 151 nM.

Regarding `CC(C)NC(=O)CO[C@H]1/C=C/C[C@H](C)[C@@H](C)S(=O)(=O)NC(=O)c2ccc3c(c2)N(C[C@@H]2CC[C@H]21)C[C@@]1(CCCc2cc(Cl)ccc21)CO3` [Example 296, 2-(((1S,3′R,6′R,7′S,8′E,11′S,12′R)-6-chloro-11′,12′-dimethyl-13′,13′-dioxido-15′-oxo-3,4-dihydro-2H-spiro[naphthalene-1,22′-[20]oxa[13]thia[1,14]diazatetracyclo[14.7.2.0^3,6.0^19,24]pentacosa [8,16,18,24]tetraen]-7′-yl)oxy)-N-(1-methylethyl)acetamide], the results for the IC50 in experiment [1] and in experiment [2] were 0.496 nM and 524 nM, respectively.

On to `C[C@@H]1[C@@H](C)C/C=C/[C@H](OCC(=O)NCC(F)(F)F)[C@@H]2CC[C@H]2CN2C[C@@]3(CCCc4cc(Cl)ccc43)COc3ccc(cc32)C(=O)NS1(=O)=O` [Example 297, 2-(((1S,3′R,6′R,7′S,8′E,11′S,12′R)-6-chloro-11′,12′-dimethyl-13′,13′-dioxido-15′-oxo-3,4-dihydro-2H-spiro[naphthalene-1,22′-[20]oxa[13]thia[1,14]diazatetracyclo[14.7.2.0^3,6.0^19,24]pentacosa [8,16,18,24]tetraen]-7′-yl)oxy)-N-(2,2,2-trifluoroethyl)acetamide], for which the values for the IC50 in experiment [1] and in experiment [2] were 0.654 nM and 478 nM, respectively.

As to `COCCNC(=O)CO[C@H]1/C=C/C[C@H](C)[C@@H](C)S(=O)(=O)NC(=O)c2ccc3c(c2)N(C[C@@H]2CC[C@H]21)C[C@@]1(CCCc2cc(Cl)ccc21)CO3` [Example 298, 2-(((1S,3′R,6′R,7′S,8′E,11′S,12′R)-6-chloro-11′,12′-dimethyl-13′,13′-dioxido-15′-oxo-3,4-dihydro-2H-[spiro[naphthalene-1,22′-20]oxa[13]thia[1,14]diazatetracyclo[14.7.2.0^3,6.0^19,24]pentacosa [8,16,18,24]tetraen]-7′-yl)oxy)-N-(2-methoxyethyl)acetamide], the figures for the IC50 in experiment [1] and in experiment [2] were 0.425 nM and 860 nM, respectively.

With `COCCN(C)C(=O)CO[C@H]1/C=C/C[C@H](C)[C@@H](C)S(=O)(=O)NC(=O)c2ccc3c(c2)N(C[C@@H]2CC[C@H]21)C[C@@]1(CCCc2cc(Cl)ccc21)CO3` [Example 299, 2-(((1S,3′R,6′R,7′S,8′E,11′S,12′R)-6-chloro-11′,12′-dimethyl-13′,13′-dioxido-15′-oxo-3,4-dihydro-2H-spiro[naphthalene-1,22′-[20]oxa[13]thia[1,14]diazatetracyclo[14.7.2.0^3,6.0^19,24]pentacosa [8,16,18,24]tetraen]-7′-yl)oxy)-N-(2-methoxyethyl)-N-methylacetamide], the IC50 came out at 0.275 nM in experiment [1] and 280 nM in experiment [2].

As to `C[C@@H]1[C@@H](C)C/C=C/[C@H](OCC(=O)N(C)CCN(C)C)[C@@H]2CC[C@H]2CN2C[C@@]3(CCCc4cc(Cl)ccc43)COc3ccc(cc32)C(=O)NS1(=O)=O` [Example 300, 2-(((1S,3′R,6′R,7′S,8′E,11′S,12′R)-6-chloro-11′,12′-dimethyl-13′,13′-dioxido-15′-oxo-3,4-dihydro-2H-spiro[naphthalene-1,22′-[20]oxa[13]thia[1,14]diazatetracyclo[14.7.2.0^3,6.0^19,24]pentacosa [8,16,18,24]tetraen]-7′-yl)oxy)-N-(2-(dimethylamino)ethyl)-N-methylacetamide], the results for the IC50 in experiment [1] and in experiment [2] were 0.24 nM and 817 nM, respectively.

`CONC(=O)CO[C@H]1/C=C/C[C@H](C)[C@@H](C)S(=O)(=O)NC(=O)c2ccc3c(c2)N(C[C@@H]2CC[C@H]21)C[C@@]1(CCCc2cc(Cl)ccc21)CO3` [Example 301, 2-(((1S,3′R,6′R,7′S,8′E,11′S,12′R)-6-chloro-11′,12′-dimethyl-13′,13′-dioxido-15′-oxo-3,4-dihydro-2H-spiro[naphthalene-1,22′-[20]oxa[13]thia[1,14]diazatetracyclo[14.7.2.0^3,6.0^19,24]pentacosa [8,16,18,24]tetraen]-7′-yl)oxy)-N-methoxyacetamide]: the IC50 in experiment [1] was determined as 0.245 nM; in experiment [2], 844 nM.
